Reference: patent publication US10941152B2, “Pyrazole compounds as modulators of FSHR and uses thereof” (TOCOPHERX, INC., priority 2014, dated 2021)
pEC50: −log10 of the molar value.

How the values were obtained:
[1] = target: T1, follicle-stimulating hormone (FSH) receptor (Rattus norvegicus, UniProt P20395); experiment: Rat granulosa EC50 FSH (Assay B); type: cell-based
T1 construct: endogenous in cells; host or cells: rat granulosa cells
T1 sequence (P20395 18-692): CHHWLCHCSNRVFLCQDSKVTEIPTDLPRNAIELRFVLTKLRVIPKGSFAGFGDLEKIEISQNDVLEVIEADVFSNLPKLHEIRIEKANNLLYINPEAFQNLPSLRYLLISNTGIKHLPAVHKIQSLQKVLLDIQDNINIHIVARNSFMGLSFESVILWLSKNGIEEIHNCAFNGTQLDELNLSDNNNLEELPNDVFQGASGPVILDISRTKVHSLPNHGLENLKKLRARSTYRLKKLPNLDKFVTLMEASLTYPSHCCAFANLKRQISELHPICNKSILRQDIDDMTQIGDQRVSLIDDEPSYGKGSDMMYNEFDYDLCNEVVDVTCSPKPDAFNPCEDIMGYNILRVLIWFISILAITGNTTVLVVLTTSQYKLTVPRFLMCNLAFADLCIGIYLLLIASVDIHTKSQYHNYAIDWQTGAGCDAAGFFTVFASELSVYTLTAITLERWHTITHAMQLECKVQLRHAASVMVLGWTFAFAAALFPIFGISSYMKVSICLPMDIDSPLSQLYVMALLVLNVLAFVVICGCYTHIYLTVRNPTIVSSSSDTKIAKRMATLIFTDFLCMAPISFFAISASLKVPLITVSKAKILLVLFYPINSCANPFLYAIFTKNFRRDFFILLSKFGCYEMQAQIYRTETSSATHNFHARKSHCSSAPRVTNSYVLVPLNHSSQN
Experimental: Example 25. Rat granulosa EC50 FSH (Assay B)
The assay was performed pursuant to the teaching of Yanofsky et al. (2006) Allosteric activation of the follicle-stimulating hormone (FSH) receptor by selective, nonpeptide agonists (JBC 281(19): 13226-13233, which is incorporated by reference in the disclosure of the invention).

FSHR = target: T2, FSHR (Homo sapiens, UniProt P23945); experiment: EC50 of cyclic AMP production in CHO FSHR cells + EC20 FSH (Assay A); type: cell-based; settings: cyclic AMP production in CHO FSHR cells + EC20 FSH (0.265 pM), HTRF
T2 construct: expressed in transfected cells; host or cells: CHO (Cho-FSHR-LUC-1-1-43)
T2 sequence (P23945 18-695): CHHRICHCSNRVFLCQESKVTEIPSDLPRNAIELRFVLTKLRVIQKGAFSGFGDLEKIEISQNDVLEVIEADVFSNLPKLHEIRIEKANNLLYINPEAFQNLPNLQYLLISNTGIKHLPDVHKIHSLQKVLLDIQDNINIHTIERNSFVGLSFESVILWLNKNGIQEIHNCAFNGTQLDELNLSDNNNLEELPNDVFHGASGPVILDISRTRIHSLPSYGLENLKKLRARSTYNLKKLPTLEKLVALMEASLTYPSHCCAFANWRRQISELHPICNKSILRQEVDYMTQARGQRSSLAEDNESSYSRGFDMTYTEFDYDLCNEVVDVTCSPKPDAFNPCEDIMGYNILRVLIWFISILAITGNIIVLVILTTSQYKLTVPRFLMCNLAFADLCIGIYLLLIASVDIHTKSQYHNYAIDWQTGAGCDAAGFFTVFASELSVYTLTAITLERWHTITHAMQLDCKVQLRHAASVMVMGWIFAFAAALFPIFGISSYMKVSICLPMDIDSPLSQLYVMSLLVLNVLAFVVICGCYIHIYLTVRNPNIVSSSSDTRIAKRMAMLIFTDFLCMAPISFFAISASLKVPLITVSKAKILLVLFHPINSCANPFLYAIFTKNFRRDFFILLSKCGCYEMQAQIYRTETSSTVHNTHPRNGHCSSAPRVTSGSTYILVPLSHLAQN
In short: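 cAMP was detected by HTRF as the 665/620 nm ratio. The CHO-FSHR cells had first been exposed for 1 h at 37° C to test compound together with 0.265 pM FSH (EC20) and 200 μM IBMX. Responses are given as percent of the FSH standard maximum.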

Row | pEC50 [1] | pEC50 (FSHR) | Compound
1 | 6.30 to 7.00 | > 8.00 | COC(=O)Cn1nc(C)c(-c2cc3c(cc2OC)OCc2c(C(=O)N(C)C(C)(C)C)nn(-c4cc(Cl)cc(Cl)c4)c2-3)c1C [Compound 138, methyl 2-(4-(3-(tert-butyl(methyl)carbamoyl)-1-(3,5-dichlorophenyl)-7-methoxy-1,4-dihydrochromeno[4,3-c]pyrazol-8-yl)-3,5-dimethyl-1H-pyrazol-1-yl)acetate]
2 | 7.00 to 8.00 | > 8.00 | COc1cc2c(cc1-c1c(C)nn(CC(N)=O)c1C)-c1c(c(C(=O)N(C)C(C)(C)C)nn1-c1cc(Cl)cc(Cl)c1)CO2 [Compound 139, 8-(1-(2-amino-2-oxoethyl)-3,5-dimethyl-1H-pyrazol-4-yl)-N-tert-butyl-1-(3,5-dichlorophenyl)-7-methoxy-N-methyl-1,4-dihydrochromeno[4,3-c]pyrazole-3-carboxamide]
3 | 6.30 to 7.00 | > 8.00 | CNC(=O)Cn1nc(C)c(-c2cc3c(cc2OC)OCc2c(C(=O)N(C)C(C)(C)C)nn(-c4cc(Cl)cc(Cl)c4)c2-3)c1C [Compound 140]
4 | 7.00 to 8.00 | > 8.00 | COc1cc2c(cc1C1C=NN=C1C)-c1c(c(C(=O)N(C)C(C)(C)C)nn1-c1cc(Cl)cc(Cl)c1)CO2 (stereo not shown) [Compound 141]
5 | 7.00 to 8.00 | > 8.00 | COc1cc2c(cc1-c1cn(CC(N)=O)nc1C)-c1c(c(C(=O)N(C)C(C)(C)C)nn1-c1cc(Cl)cc(Cl)c1)CO2 [Compound 142]
6 | 6.30 to 7.00 | > 8.00 | COc1cc(OC)cc(-n2nc(C(=O)N(C)C(C)(C)C)c3c2-c2cc(-c4nn(C)cc4Br)c(OC)cc2OC3)c1 [Compound 145, 8-(4-bromo-1-methyl-1H-pyrazol-3-yl)-N-tert-butyl-1-(3,5-dimethoxyphenyl)-7-methoxy-N-methyl-1,4-dihydrochromeno[4,3-c]pyrazole-3-carboxamide]
7 | 6.30 to 7.00 | > 8.00 | COc1cc(OC)cc(-n2nc(C(=O)N(C)C(C)(C)C)c3c2-c2cc(-c4nn(C)cc4C#N)c(OC)cc2OC3)c1 [Compound 146, N-tert-butyl-8-(4-cyano-1-methyl-1H-pyrazol-3-yl)-1-(3,5-dimethoxyphenyl)-7-methoxy-N-methyl-1,4-dihydrochromeno[4,3-c]pyrazole-3-carboxamide]
8 | 7.00 to 8.00 | > 8.00 | COc1cc2c(cc1-c1nn(C)cc1Br)-c1c(c(C(=O)N(C)C(C)(C)C)nn1-c1cc(Cl)cc(Cl)c1)CO2 [Compound 148]
9 | 7.00 to 8.00 | > 8.00 | COc1cc2c(cc1-c1nn(C)cc1C#N)-c1c(c(C(=O)N(C)C(C)(C)C)nn1-c1cc(F)cc(F)c1)CO2 [Compound 149]
10 | 7.00 to 8.00 | > 8.00 | COc1cc2c(cc1-c1nn(C)cc1C#N)-c1c(c(C(=O)N3CCOCC3(C)C)nn1-c1cc(F)cc(F)c1)CO2 [Compound 150]
11 | 7.00 to 8.00 | > 8.00 | COc1cc2c(cc1-c1nn(C)cc1Cl)-c1c(c(C(=O)N3CCOCC3(C)C)nn1-c1cc(F)cc(F)c1)CO2 [Compound 151]
12 | 7.00 to 8.00 | > 8.00 | COc1cc2c(cc1-c1cnccc1C(N)=O)-c1c(c(C(=O)N(C)C(C)(C)C)nn1-c1cc(Cl)cc(Cl)c1)CO2 [Compound 153]
13 | 7.00 to 8.00 | > 8.00 | COc1cc(Cl)cc(-n2nc(C(=O)N(C)C(C)(C)C)c3c2-c2cc(-c4cncc(C(N)=O)c4)c(OC)cc2OC3)c1 [Compound 156]
14 | > 8.00 | > 8.00 | COc1cc(Cl)cc(-n2nc(C(=O)N3CCOCC3(C)C)c3c2-c2cc(-c4cncc(C(N)=O)c4)c(OC)cc2OC3)c1 [Compound 157]
15 | 7.00 to 8.00 | > 8.00 | [2H]C([2H])([2H])Oc1cc(Cl)cc(-n2nc(C(=O)N(C)C(C)(C)C)c3c2-c2cc(-c4cncc(C(N)=O)c4)c(OC([2H])([2H])[2H])cc2OC3)c1 [Compound 158]
16 | 7.00 to 8.00 | > 8.00 | COc1cc(OC)cc(-n2nc(C(=O)N3CCOCC3(C)C)c3c2-c2cc(-c4cncc(C(N)=O)c4)c(OC)cc2OC3)c1 [Compound 159]

Row | pEC50 [1] | pEC50 (FSHR) | Compound
17 | 7.00 to 8.00 | > 8.00 | COc1cc(OC)cc(-n2nc(C(=O)N(C)C(C)(C)C)c3c2-c2cc(-c4cncc(C(N)=O)c4)c(OC)cc2OC3)c1 [Compound 160]
18 | 7.00 to 8.00 | > 8.00 | COc1cc2c(cc1-c1cncc(C(N)=O)c1)-c1c(c(C(=O)N(C)C(C)(C)C)nn1-c1cc(F)cc(F)c1)CO2 [Compound 161]
19 | 6.30 to 7.00 | > 8.00 | COc1cc2c(cc1-c1cncc(C(N)=O)c1)-c1c(c(C(=O)N3CCC(O)CC3(C)C)nn1-c1cc(F)cc(F)c1)CO2 (stereo not shown) [Compound 162]
20 | 6.30 to 7.00 | > 8.00 | COc1cc2c(cc1-c1cncc(C(N)=O)c1)-c1c(c(C(=O)N3CC[S+]([O-])CC3(C)C)nn1-c1cc(F)cc(F)c1)CO2 (stereo not shown) [Compound 163]
21 | > 8.00 | > 8.00 | COc1cc2c(cc1-c1cncc(C(N)=O)c1)-c1c(c(C(=O)N3CCOCC3(C)C)nn1-c1cc(F)cc(F)c1)CO2 [Compound 164]
22 | 7.00 to 8.00 | > 8.00 | COc1cc2c(cc1-c1cc(Cl)cc(C(N)=O)c1)-c1c(c(C(=O)N(C)C(C)(C)C)nn1-c1cc(F)cc(F)c1)CO2 [Compound 165]
23 | 6.30 to 7.00 | > 8.00 | COc1cc(F)cc(-n2nc(C(=O)N(C)C(C)(C)C)c3c2-c2cc(-c4cncc(C(N)=O)c4)c(OC)cc2OC3)c1 [Compound 166]
24 | 7.00 to 8.00 | > 8.00 | COc1cc2c(cc1-c1cncc(C(N)=O)c1)-c1c(c(C(=O)N(C)C(C)(C)C)nn1-c1ccsc1)CO2 [Compound 167]
25 | 6.30 to 7.00 | > 8.00 | COc1cc2c(cc1-c1cncc(C(N)=O)c1)-c1c(c(C(=O)N(C)C(C)(C)C)nn1-c1ccccn1)CO2 [Compound 168]
26 | 6.30 to 7.00 | > 8.00 | COc1cc2c(cc1-c1cncc(C(N)=O)c1)-c1c(c(C(=O)N3CCOCC3(C)C)nn1-c1cc(Cl)cc(Cl)c1)CO2 [Compound 169]
27 | 6.30 to 7.00 | > 8.00 | COc1cc2c(cc1-c1cnc(C)c(C(N)=O)c1)-c1c(c(C(=O)N(C)C(C)(C)C)nn1-c1cc(Cl)cc(Cl)c1)CO2 [Compound 170]
28 | > 8.00 | > 8.00 | COc1cc2c(cc1-c1cncc(C(N)=O)c1)-c1c(c(C(=O)N(C)C(C)(C)C)nn1-c1cc(Cl)cc(Cl)c1)CO2 [Compound 171]
29 | 7.00 to 8.00 | > 8.00 | COc1cc2c(cc1-c1cccc(C(N)=O)c1)-c1c(c(C(=O)N(C)C(C)(C)C)nn1-c1cc(Cl)cc(Cl)c1)CO2 [Compound 172]
30 | 7.00 to 8.00 | > 8.00 | COc1cc2c(cc1-c1cncc(C(N)=O)c1)-c1c(c(C(=O)N(C)C(C)(C)C)nn1-c1cc(C)cc(F)c1)CO2 [Compound 173]
31 | 7.00 to 8.00 | > 8.00 | COc1cc2c(cc1-c1cc(C(N)=O)c[n+]([O-])c1)-c1c(c(C(=O)N3CCOCC3(C)C)nn1-c1cc(Cl)cc(Cl)c1)CO2 [Compound 174, 3-carbamoyl-5-(1-(3,5-dichlorophenyl)-3-(3,3-dimethylmorpholine-4-carbonyl)-7-methoxy-1,4-dihydrochromeno[4,3-c]pyrazol-8-yl)pyridine 1-oxide]
32 | 7.00 to 8.00 | > 8.00 | COc1cc(OC)cc(-n2nc(C(=O)N(C)C(C)(C)C)c3c2-c2cc(-c4cc(C(N)=O)c[n+]([O-])c4)c(OC)cc2OC3)c1 [Compound 175]
